In PubChem BioAssay (NCI):
Several values for one entry are separate records, joined by “and”; a condition that tells them apart may be missing. Equal values may be shown once.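 Five concentrations, 48 hours, 96-well plates. The concentration for 50% growth inhibition is given as GI50. TGI: concentration producing complete growth inhibition.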 Where a SMILES comes first, the peptide text is derived from it. [ ]: non-standard residue; d: D form. NMeY = CN[C@@H](Cc1ccc(O)cc1)C(=O)O; dNMeF = CN[C@H](Cc1ccccc1)C(=O)O; Sar = CNCC(=O)O

Experiments:
Assay in all cases: growth of human tumour cells (NCI), 48 h
[1] = tested on: PC-3 prostate
[2] = tested on: NCI-H522 lung
[3] = tested on: SN12C renal
[4] = tested on: SW-620 colon
[5] = tested on: SK-MEL-28 melanoma
[6] = tested on: IGROV1 ovarian
[7] = tested on: CCRF-CEM leukemia
[8] = tested on: OVCAR-8 ovarian
[9] = tested on: LOX IMVI melanoma
[10] = tested on: 786-0 renal

SMILES	GI50 [1] [µM]	TGI [1] [µM]	GI50 [2]	TGI [2]	GI50 [3] [µM]	TGI [3]	GI50 [4] [µM]	TGI [4]	GI50 [5]	TGI [5]	TGI [6]	GI50 [7]	TGI [7] [µM]	GI50 [8]	TGI [8]	GI50 [9] [µM]	TGI [9]	GI50 [10] [µM]	TGI [10]	GI50 [6]
Nc1ncnc2c(C3OC(CO)C(O)C3O)[nH]nc12 (stereo not drawn)	0.0474	8.97	0.239 µM	3.74 µM and 6.29 µM	0.161	1.68 µM and 1.09 µM	0.0592	3.31 µM and 9.17 µM	2.64 µM and 1.69 µM	30.6 µM and 25.4 µM	8.6 µM	4.68 µM and 2.77 µM	73.9	0.0375 µM and 0.0527 µM	0.624 µM and 0.713 µM	0.147	2.22 µM and 0.4 µM	0.0544	5.65 µM	
CN(C)C(=O)c1cc2cnc(Nc3ccc(-c4csc5c(=O)cc(N6CCNCC6)oc45)cc3)nc2n1C1CCCC1	0.677	4.93	0.473 µM	2.55 µM	0.557	16.8 µM	0.418	2.09 µM	2.14 µM	6.88 µM	6.12 µM	0.433 µM		1.21 µM	> 42.5 µM	0.85	2.22 µM	0.535	1.93 µM	0.523 µM
O=C(O)c1ccc(NCc2nc3cc4ccccc4cc3[nH]2)cc1		> 100		> 100 µM		> 100 µM		> 100 µM		> 85.2 µM	> 100 µM		> 100		> 100 µM		> 100 µM		> 100 µM	
N#CSCc1c(Cl)cccc1Cl	8.73	> 100	2.07 µM	6.33 µM	4.5	> 100 µM	0.76	> 46.3 µM	9.16 µM	> 100 µM	7.2 µM	0.323 µM	> 43.8	4.8 µM	> 100 µM	3.55	> 100 µM	5.57	> 100 µM	2.69 µM
N#Cc1cccc(/C=C(/C(=O)c2ccccc2)c2ccccc2)c1	6.27	36.6	2.35 µM	6.95 µM	3.85	25.9 µM	3.28	15.5 µM	5.35 µM	19.1 µM	25.3 µM	2.56 µM	12.8	2.97 µM	25.5 µM	2.89	10.2 µM	6.73	23.8 µM	4.27 µM
C/C(=N\NC(=O)c1ccccc1O)c1cccc(/C(C)=N/NC(=O)c2ccccc2O)n1	0.626	> 100	4.75 µM and 0.856 µM	27.8 µM and > 100 µM	0.731	> 100 µM	0.632	> 100 µM	24.4 µM and > 100 µM	> 100 µM	43.8 µM and > 100 µM	0.693 µM	48.8	0.571 µM	51.6 µM and > 100 µM	0.505	> 100 µM	0.616	45.6 µM and 18.4 µM	2.4 µM and 15.4 µM
COc1ccc2[nH]c(=O)c(/C=C/C(=O)/C=C/c3ccc(O)c(OC)c3)cc2c1	1.83	4.94	1.74 µM	3.87 µM	1.89	4.49 µM	1.13	3.33 µM	1.69 µM	3.25 µM	4.24 µM	2.06 µM	> 100	1.52 µM	11.5 µM	1.54	3.18 µM	1.59	3.17 µM	1.77 µM
S=C=NCc1ccccc1		19.8		4.45 µM		> 36.8 µM		> 37.3 µM		10.2 µM	8.17 µM		2.48		9.31 µM		> 22.5 µM		1.65 µM	
Cc1ccc(N=Nc2c(N)nn(-c3ccccc3)c2N)cc1	1.53	6.17	1 µM	> 100 µM	7.66	> 100 µM	0.493	> 100 µM	8.97 µM	> 100 µM	> 100 µM	2.06 µM		4.27 µM	> 100 µM	5.78	> 100 µM	0.755		4.5 µM
CN(C)CCNC(=O)Cn1ccc(=O)c2ccc([N+](=O)[O-])cc21		> 100		> 100 µM		> 100 µM		> 100 µM		> 100 µM	> 100 µM		> 100				> 100 µM		> 100 µM	
O=C(O)C[O][Sb][O]CC(=O)O	> 100	> 100	> 100 µM	> 100 µM	> 100	> 100 µM	> 100	> 100 µM	> 100 µM	> 100 µM	> 100 µM	> 100 µM	> 100	> 100 µM	> 100 µM	> 100	> 100 µM	> 100	> 100 µM	> 100 µM
CC[C@H](C)[C@@H]1NC(=O)[C@H](Cc2ccc(O)cc2)N(C)C(=O)[C@H](Cc2ccccc2)NC(=O)CN(C)C(=O)[C@@H]2CCCN2C(=O)[C@@H](Cc2ccccc2)N(C)C(=O)[C@H](CC(C)C)NC1=O (cyclo(F[NMeY]IL[dNMeF]P[Sar]))	0.28	6.21	0.287 µM	3.95 µM	0.139	5.79 µM	0.199	5.32 µM	0.194 µM	1.46 µM	5.2 µM	0.279 µM	11.7	0.352 µM	12.8 µM	0.197	1.89 µM	0.467	5.75 µM	0.21 µM
O=C(OCC1OC(OC(=O)c2cc(O)c(O)c(OC(=O)c3cc(O)c(O)c(O)c3)c2)C(OC(=O)c2cc(O)c(O)c(OC(=O)c3cc(O)c(O)c(O)c3)c2)C(OC(=O)c2cc(O)c(O)c(OC(=O)c3cc(O)c(O)c(O)c3)c2)C1OC(=O)c1cc(O)c(O)c(OC(=O)c2cc(O)c(O)c(O)c2)c1)c1cc(O)c(O)c(OC(=O)c2cc(O)c(O)c(O)c2)c1 (stereo not drawn)	10.1	> 50	8.71 µM	29.7 µM	11.4	29.8 µM	21.6	> 50 µM	> 50 µM	> 50 µM		18.2 µM	> 50	25.6 µM	> 50 µM	10	25.4 µM	46.9	> 50 µM	
